Common to all, as to assay type: biochemical
For assay [1], the target named is DCXR (Homo sapiens, UniProt Q7Z4W1). In words: 1H NMR.
Assay [2] concerns the target T1, CRYL1 (Homo sapiens, UniProt Q9Y2S2).
T1 sequence (Q9Y2S2 2-319): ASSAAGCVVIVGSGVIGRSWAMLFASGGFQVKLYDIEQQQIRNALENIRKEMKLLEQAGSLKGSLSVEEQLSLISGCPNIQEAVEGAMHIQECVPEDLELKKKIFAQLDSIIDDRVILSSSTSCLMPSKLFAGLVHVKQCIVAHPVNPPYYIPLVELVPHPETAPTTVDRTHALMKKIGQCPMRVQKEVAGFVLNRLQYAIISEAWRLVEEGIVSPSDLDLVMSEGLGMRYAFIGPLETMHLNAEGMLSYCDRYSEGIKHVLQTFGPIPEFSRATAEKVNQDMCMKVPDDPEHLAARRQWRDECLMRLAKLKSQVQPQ
The experiment in a line: NADH formation at […] nm. Particulars: 20 mM potassium phosphate, 37 °C, L-gulonate.

Assay [3] deals with T1, CRYL1. The experiment in a line: 1H NMR, NADH at […] nm and UHPLC-HRMS of product BKG. Particulars: 20 mM potassium phosphate pH 7.9, 25 °C, NAD+ (NMR); oxidation at C3.

The record followed here is article PMC12337341 (Proceedings of the National Academy of Sciences of the …, 2025).

Sequence of DCXR (Q7Z4W1 whole entry): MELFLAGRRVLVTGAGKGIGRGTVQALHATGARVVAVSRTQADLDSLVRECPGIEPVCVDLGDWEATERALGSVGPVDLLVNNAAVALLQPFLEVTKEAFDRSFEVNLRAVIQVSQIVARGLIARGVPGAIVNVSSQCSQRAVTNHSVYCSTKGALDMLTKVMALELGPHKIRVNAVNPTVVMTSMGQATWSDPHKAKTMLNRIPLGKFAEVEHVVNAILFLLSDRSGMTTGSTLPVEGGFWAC

`OC[C@@H](O)[C@H](O)[C@@H](O)CO` [xylitol]: the “1H NMR” value in assay [1] (reverse reaction with NADP+, 20 mM potassium phosphate pH 7.9, 25 °C) is “using DCXR in the reverse reaction with xylitol and NADP+ as substrates”. Turning to `NC(=O)c1ccc[n+]([C@@H]2O[C@H](COP(=O)(O)OP(=O)(O)OC[C@H]3O[C@@H](n4cnc5c(N)ncnc54)[C@H](O)[C@@H]3O)[C@@H](O)[C@H]2O)c1` [NAD^+], the “NADH formation at 340 nm” value in assay [2] is reported as “exploiting the equilibrium of the NAD-dependent reaction of CRYL1”.

Take `O=C(O)[C@@H](O)[C@@H](O)[C@H](O)[C@@H](O)CO` [L-gulonate]: in assay [3], the “1H NMR, NADH at 340 nm and UHPLC-HRMS of product BKG” value is given as “the CRYL1 oxidation of L-gulonate at C3 is observed”. As for `NC(=O)c1ccc[n+]([C@@H]2O[C@H](COP(=O)(O)OP(=O)(O)OC[C@H]3O[C@@H](n4cnc5c(N)ncnc54)[C@H](OP(=O)(O)O)[C@@H]3O)[C@@H](O)[C@H]2O)c1` [NADP+], the “1H NMR” value in assay [1] (reverse reaction with xylitol, same) was “using DCXR in the reverse reaction with xylitol and NADP+ as substrates”.
